Earlier results as cited in article PMC6891678, “A Novel Prodrug Approach for Central Nervous System-Selective Estrogen Therapy” (Molecules, 2019).

Tests used:
uterus [1] = conditions: increasing s.c. doses, 5 days once daily
[2] = 300 µg/kg s.c., 5 days once daily, SEM, n = 4
OVX CD1 mice = conditions: increasing s.c. doses, 5 days once daily
[3] = test system: transient middle cerebral artery occlusion (tMCAO) ischemic stroke model; conditions: for ED50 (dose equivalent to 50% of the maximum effect): neuroprotection, tMCAO followed by reperfusion
brain homogenate = conditions: 100 μM, 37 °C, homogenate 0.2% w/v, pH 7.4; mean ± SD
[4] = test system: middle-aged OVX Fisher-344 rats; conditions: continuous 7-week s.c. administration, 4 µg daily dose
[5] = test system: MCP-1−/− transgenic mouse model; parameters: method as in earlier work; conditions: topical eye drops; for increase of contrast sensitivity compared to the vehicle control: ipsilateral/treated eye
amyloid-β peptide (Aβ) = conditions: OVX and intact female APPswe/PS1dE9 DTG mice
[6] = test system: ER transcription (ERE-Luc reporter)
liver homogenate = conditions: 100 μM, 37 °C, homogenate 0.2% w/v, pH 7.4; mean ± SD
retina homogenate = conditions: 100 μM, 37 °C, homogenate 0.2% w/v, pH 7.4; mean ± SD
uterus [7] = conditions: after E2-CDS
[8] = E2-CDS-treated animals
[9] = not given; remark: listed apart in the source

C[C@]12CC[C@H]3[C@@H](CCC4=CC(=O)C=C[C@@]43O)[C@@H]1CC[C@H]2O [αDHED, 10β,17α-dihydroxyestra-1,4-dien-3-one]
uterotrophic effect (wet uterus weight) (uterus [1]): devoid of this detrimental common side effect | Cortex αE2 [2]: 8.9 ± 1.7 ng/g | Serum αE2 [2]: <0.01 ng/mL | Cortex E2 ([2]; endogenous E2): 0.28 ± 0.09 ng/g | Serum E2 ([2]; endogenous E2): <0.01 ng/mL | Uterus E2 ([2]; endogenous E2): 0.37 ± 0.10 ng/g | immobility time in PST (OVX CD1 mice): dose-dependent reduction in immobility times

C[C@]12CC[C@H]3[C@@H](CCC4=CC(=O)C=C[C@@]43O)[C@@H]1CCC2=O [HEDD, 10β-hydroxyestra-1,4-dien-3,17-dione]
neuroprotection in stroke model ([3]; without peripheral hormonal liability): significant neuroprotection

C[C@]12CC[C@H]3[C@@H](CCC4=CC(=O)C=C[C@@]43O)[C@@H]1CC[C@@H]2O [DHED, 10β,17β-dihydroxyestra-1,4-dien-3-one]
Rate of H2O2 production, Brain (brain homogenate): 125 ± 19 nmol·h^−1·mg protein^−1 | working memory errors compared to control animals [4]: significantly decreased working memory errors | oral bioavailability: excellent oral bioavailability | increase of contrast sensitivity compared to the vehicle control [5]: approximately 3 fold | preservation of contrast sensitivity compared to the wild-type (WT) control [5]: approximately 75% | amyloid-β peptide (Aβ) levels in the brain (amyloid-β peptide (Aβ)): decreased amyloid-β peptide (Aβ) levels in the brain | ER activation within the brain (bioluminescence in brain slices) ([6]; i.c.v. injection, 75 µg/kg): profound ER activation | bioluminescence in the periphery (ERE-Luc reporter activation) ([6]; s.c., E2 20 μg/kg, DHED 200 μg/kg): did not generate bioluminescence in the periphery | ED50 (dose equivalent to 50% of the maximum effect) [3]: 15 µg/kg | Rate of H2O2 production, Liver (liver homogenate): 34 ± 18 nmol·h^−1·mg protein^−1 | Rate of H2O2 production, Retina (retina homogenate): 163 ± 9 nmol·h^−1·mg protein^−1

C[C@]12CC[C@@H]3C4=C(CC[C@H]3[C@@H]1CCC2=O)C(=O)C(=O)C=C4 [3,4-E1-quinone, estra-1,5(10)-dien-3,4,17-trione, reference compound]
Rate of H2O2 production, Brain (brain homogenate): 1050 ± 8 nmol·h^−1·mg protein^−1 | Rate of H2O2 production, Liver (liver homogenate): 687 ± 40 nmol·h^−1·mg protein^−1 | Rate of H2O2 production, Retina (retina homogenate): 580 ± 50 nmol·h^−1·mg protein^−1

C[C@]12CC[C@@H]3c4ccc(O)cc4CC[C@H]3[C@@H]1CC[C@H]2O [αE2, 17α-estradiol, reference compound]
immobility time in PST (OVX CD1 mice): dose-dependent reduction in immobility times

CN1C=CCC(C(=O)O[C@H]2CC[C@H]3[C@@H]4CCc5cc(O)ccc5[C@H]4CC[C@]23C)=C1 [E2-CDS]
wet uterine weight relative to control (uterotrophic effect) (uterus [7]): significant increase in wet uterine weight | E2 content of uterus [8]: 1 to 3 ng/g

C[C@]12CC[C@@H]3c4ccc(O)cc4CC[C@H]3[C@@H]1CC[C@@H]2O [E2, 17β-estradiol, reference compound]
oral bioavailability: lacks appreciable oral bioavailability | increase of contrast sensitivity compared to the vehicle control [5]: ~2 fold | preservation of contrast sensitivity compared to the wild-type (WT) control [5]: ~50% | E2 concentration in the retina ([9]; 3-week daily E2 eye drops): ~ 22 ng/g | circulating estrogen levels ([9]; chronic E2 eye drop treatment): > 400 pg/mL | time of maximum bioluminescence effect after drug treatment ([6]; E2 20 μg/kg s.c.): about 3 h | ED50 (dose equivalent to 50% of the maximum effect) [3]: ~ 200 µg/kg
